Reference: patent US20240366644A1, “ANTI-INFLAMMATORY APPLICATION OF GINSENOSIDE RD” (priority 2022, published 2024)

System: COVID-19 Delta virus-infected mice
Experiment: IL-1β and MCP-1 expression (RT-qPCR) in lung homogenates of COVID-19 Delta virus-infected mice
Format: in vivo, hACE2 transgenic C57BL/6 mice
Details: 20 mg/kg administration group

## CC(C)=CCC[C@](C)(O[C@@H]1O[C@H](CO)[C@@H](O)[C@H](O)[C@H]1O)[C@H]1CC[C@]2(C)[C@@H]1[C@H](O)C[C@@H]1[C@@]3(C)CC[C@H](O[C@@H]4O[C@H](CO)[C@@H](O)[C@H](O)[C@H]4O[C@@H]4O[C@H](CO)[C@@H](O)[C@H](O)[C@H]4O)C(C)(C)[C@@H]3CC[C@]12C [Ginsenoside Rd, ginsenoside Rd]
  ability to inhibit the overexpression of inflammatory mediators compared with Dexamethasone: considerable to that of Dexamethasone
